This is an account of results in patent US11028427B2, “Systems and methods for proteomic activity analysis using DNA-encoded probes” (priority 2015, dated 2021).

Test [1] relates to caspase 3 in lysates from HeLa cells. The test is described as follows: Caspase 3 activity in HeLa cell lysates with DNA-encoded probe, qPCR. To be noted: HeLa cell lysates with vs without staurosporine treatment to induce apoptosis. It counts as cell-based. For orientation: Real-time PCR tracks product formation cycle by cycle.
In another test the target is PKA (Homo sapiens, UniProt P17612). The test is described as follows: PKA peptide substrate kcat/Km comparison. It counts as biochemical. The source says:
This extracellular PKA (ecPKA) and other ectokinase activities have recently garnered interest as useful cancer markers. However, the low levels of activity present challenges for detection using conventional methods. Conventional techniques to detect ecPKA in patient samples have relied exclusively on radioactive assays; however, exposure to radioactivity is problematic for those performing the assays, as is the cumbersome amount of paperwork and red tape associated obtaining approval for the use of radioactive assays and the disposal of radioactive waste. However, the PKA level in the serum of healthy individuals has been estimated at about 3 pM, which is below other conventional assay detection limits and, thus, problematic. Using the techniques described herein, a DNA-peptide substrate probe was synthesized based on the highly specific protein inhibitor for PKA—protein kinase inhibitor (PKI)—with the sequence […]. This peptide has about a 100-fold greater kcat/Km than the RRFSL peptide for PKA and provided a significant increase (e.g., a 100-fold) in assay sensitivity. Accordingly, the method 300 for detecting proteomic activity using DNA-encoded probes could provide sensitivity for detection of PKA activity in the bloodstream of a subject to accurately identify upregulation, for example, of ecPKA, which can be indicative of cancer.

The target in the next test is biotinylated B. CAII (Bos taurus, UniProt P00921). In words: Enrichment of ligands via crosslinking (SDS + stringent washes), qPCR. It counts as binding, bovine. To be noted: 1 μM CAII.
Test [2] deals with Biotinylated B. CAII immobilized on magnetic beads (Bos taurus, UniProt P00921). The test is described as follows: Enrichment of ligands via solid-phase affinity pulldown, qPCR. It counts as binding, bovine. As to conditions: for Enrichment (fold change relative to non-ligand (Bz) DNA construct): Solid Phase Affinity Pull down. The source says: To prepare constructs for test selections, two CAII ligands and a non-ligand control (FIG. 17) were synthesized on a 5′-amine-modified, 40-mer oligonucleotide, which contained a PEG spacer between two 20-mer sequences as previously described. Using these oligos as primers in a PCR with unique 100-mer templates gave 100-mer dsDNA products tethered to the ligand-containing 20-mer ssDNA. DNA templates assigned to each ligand 1302 contained a unique, internal 20-mer sequence for use as a specific priming site to enable qPCR analysis of ligand enrichments. A mock library was then prepared by mixing ligand constructs GL-CBS and D-CBS at 0.1 nM each with an excess of control, non-ligand construct (Bz) (10 nM).
Using this mixture, test selections were conducted using the crosslinking approach with the sulfonyl fluoride oligo or using a traditional solid-phase selection with CAII immobilized on magnetic beads.
Biotinylated B. CAII (1.2× based on magnetic bead capacity) was immobilized onto pre-washed Nanolink Streptavidin Magnetic Beads by incubating in 0.1 M sodium phosphate, pH 8.0, 0.25 M NaCl, 0.02% (v/v) Tween-20, 1.0 mg/mL tRNA, 10 μM BSA for 2 h at RT. The magnetic beads were then separated and supernatant removed. The CAII-bound magnetic beads were then washed with the above buffer three times and a premix of ligand-dsDNA and non-ligand-dsDNA (0.1 nM and 10 nM, respectively) in the above buffer (in the appropriate volume to give the desired effective protein concentration) was added and incubated at RT for 1.5 h. The magnetic beads were then separated and DNA supernatant removed. The CAII-bound magnetic beads were then washed with the above buffer five times, maintaining the same effective protein concentration in each wash. After the final wash, the magnetic beads were suspended in […] and heated at 95° C. for 5 min. qPCR analysis of the premix and magnetic bead elution was completed by comparison of CT standard curves of identical dsDNA constructs.

The target of test [3] is T1, BSA (Bos taurus, UniProt P02769). The test is described as follows: Crosslinking to BSA in reactions lacking the target protein, SDS-PAGE. Type of test: binding, bovine. As to conditions: reactive group phenyl azide (5); reactions that lacked the target protein. On the procedure:
(§1) This crosslinking likely reflects the propensity of BSA to bind to hydrophobic small molecules and potentially to sulfonamides specifically. Thus, this labeling may still be considered ligand-dependent.
Photocrosslinking was performed as described above, except the system was allowed to incubate with both the ligand-ssDNA and reactive group-ssDNA′ for 30 minutes at RT. Irradiation was completed by exposure to a 4W 356 nm UV light source at 4° C. for 1 hour, quenched by the addition 6×SDS-loading buffer, and directly analyzed by SDS-PAGE. Gels were imaged immediately for FAM fluorescence and then Coomassie stained.

The target of test [4] is T1, BSA. The test is described as follows: Bio-layer interferometry analysis of binding to BSA. As to conditions: BSA at 10 μM; data not shown. Also noted: species or system bovine. As for the experimental part:
as §1
DNA conjugates were purified on a Varian Pro Star HPLC system and analytical analysis on an Agilent 1100 series HPLC system, both using Agilent Microsorb-MV 300-5 C18 250×4.6 mm reverse phase columns. Analytical separations were performed using 100 mM triethylammonium acetate (TEAA), pH 5.5 in water (A) or 100 mM triethylammonium acetate in 90% MeCN (B) with a linear gradient from 5-60% B over 22 minutes. Purifications were performed using the previous or 0.75% (v/v) 1,1,1,3,3,3-hexafluoropropan-2-ol, and 10 μM EDTA to pH 7.0 with triethylamine in water (A) or 90% MeOH (B) with a linear gradient from 5-50% B over 22 minutes. ESI-MS analysis was completed using an ABSciex 4500 QTrap from fractions collected from HFIP-based HPLC purifications. MALDI analysis was completed on an Applied Biosystems Voyager DE PRO instrument operated by the Purdue University Campus-Wide Mass Spectrometry Center after TEAA-based purification, ethanol precipitation, and ZipTip cleanup. On-DNA ligand dissociation constants were determined using a ForteBio Octet Red384. […] All gel images were recorded by a GE Healthcare Typhoon Trio+ with gel band quantifications determined using ImageJ software.

Biotinylated B. CAII immobilized on magnetic beads, sequence (P00921 whole entry): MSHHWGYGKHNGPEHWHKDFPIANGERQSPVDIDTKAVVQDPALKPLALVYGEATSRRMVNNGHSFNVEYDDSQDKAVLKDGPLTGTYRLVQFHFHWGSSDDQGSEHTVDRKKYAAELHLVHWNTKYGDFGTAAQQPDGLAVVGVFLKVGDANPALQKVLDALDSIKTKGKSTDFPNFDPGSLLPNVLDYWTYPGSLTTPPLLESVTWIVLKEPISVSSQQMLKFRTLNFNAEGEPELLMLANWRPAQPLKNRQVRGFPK
biotinylated B. CAII, sequence (P00921 whole entry): as above
T1 sequence (P02769 25-607): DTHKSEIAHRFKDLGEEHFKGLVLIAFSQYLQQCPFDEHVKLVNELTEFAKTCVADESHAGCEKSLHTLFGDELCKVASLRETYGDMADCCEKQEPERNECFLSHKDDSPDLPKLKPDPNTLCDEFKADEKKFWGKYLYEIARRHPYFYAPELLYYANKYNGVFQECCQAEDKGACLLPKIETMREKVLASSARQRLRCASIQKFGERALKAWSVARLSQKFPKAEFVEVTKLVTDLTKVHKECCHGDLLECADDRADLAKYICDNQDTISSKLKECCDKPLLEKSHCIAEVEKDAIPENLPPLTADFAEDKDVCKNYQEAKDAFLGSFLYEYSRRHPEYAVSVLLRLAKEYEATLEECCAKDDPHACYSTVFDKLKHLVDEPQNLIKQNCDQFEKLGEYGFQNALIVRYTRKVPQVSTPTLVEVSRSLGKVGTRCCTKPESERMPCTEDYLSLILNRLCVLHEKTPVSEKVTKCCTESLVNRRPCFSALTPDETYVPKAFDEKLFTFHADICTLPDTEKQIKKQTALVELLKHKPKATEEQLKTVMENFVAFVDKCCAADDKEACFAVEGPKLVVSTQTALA

Take `CN[C@@H]1C[C@H]2O[C@@](C)([C@@H]1OC)n1c3ccccc3c3c4c(c5c6ccccc6n2c5c31)C(=O)NC4` [staurosporine]: the “Increase in caspase activity” value in test [1] was around 6 fold.
For GRTGRRNSI, the “kcat/Km relative to the RRFSL peptide” value with PKA is around 100 fold.
In the case of “glycylleucine carboxybenzylsulfonamide [GL-CBS]”, the “Enrichment (fold change relative to non-ligand (Bz) DNA construct)” value on biotinylated B. CAII (Without X-linking (3'-OH ssDNA)) is 22 fold; in test [2] (1 μM CAII) it was 720 fold; in test [2] (17 μM CAII (estimated)), 610 fold. The “Enrichment (fold change in concentration of ligand-DNA construct relative to non-ligand (Bz) DNA construct)” value at biotinylated B. CAII (X-linking with 3 (sulfonyl fluoride)) is reported as 17,000 fold. In addition, the “Overall enrichment in solid-phase selection compared to crosslinking selection (lower)” value in test [2] (1 μM CAII) was 20 fold. The “Recovery in solid-phase selection compared to crosslinking selection (greater)” value in test [2] (1 μM CAII) was “approximately 5 fold”. Further, the BSA crosslinking entry on BSA [3] is listed as “significant levels of BSA crosslinking”. Moreover, the “Binding to BSA” value at BSA [4] is “did not indicate binding”.
